This is an account of results in ChEMBL document CHEMBL4354808, “Drugs for the Treatment of Zika Virus Infection” (J Med Chem, 2020).

Data set [1] can be described thus: Cytotoxicity against human RD cells. The format is cell-based.
A short description of data set [2]: Cytotoxicity against human HuH7 cells. In kind it is cell-based. Conditions: Huh-7 cells.
The nature of data set [3]: Cytotoxicity against African green monkey Vero cells. The following applies: chlorocebus sabaeus. In kind it is cell-based.
Data set [4] addresses T1, NS5 (Zika virus, UniProt A0A143MHK7). The experiment in a line: Inhibition of Zika virus MTase (4 to 278 residues) expressed in Escherichia coli T7 using GpppAC4 as substrate in presence of [3H]SAM incubated for 30 mins by liquid scintillation counter method.
In data set [5] the target is T1, NS5. Nature of the data set: Inhibition of Zika virus MTase (4 to 278 residues) expressed in Escherichia coli T7 using A27 RNA as substrate in presence of [3H]SAM incubated for 30 mins by liquid scintillation counter method.
Data set [6] addresses T2, Nonstructural protein 3 (Zika virus, UniProt A0A024AXB9). The experiment in a line: Inhibition of N-terminal His6-tagged Zika virus NS2B (49 to 95 residues) - NS3 (1 to 170 residues) protease domain expressed in Escherichia coli BL21-Gold (DE3) cells preincubated for 10 mins followed by Bz-Nle-Lys-Lys-Arg-AMC substrate addition.
Another data set concerns Yellow fever virus. The experiment in a line: Antiviral activity against Yellow fever virus 17D V3 Vaccine infected in human A549 cells after 48 hrs by plaque reduction assay. The format is functional, organism-based. The following applies: A549, 48 h. Background: In a plaque reduction assay, fewer plaques than in the control indicate reduced infectivity or spread.
A further data set deals with dengue virus type 2. The experiment in a line: Antiviral activity against Dengue virus 2 New Guinea C infected in human A549 cells after 48 hrs by plaque reduction assay. The format is functional, organism-based. The following applies: A549, 48 h.
For another data set, the target named is Genome polyprotein (dengue virus type 2, UniProt P29990). The experiment in a line: Inhibition of Dengue virus 2 NS2B (48 to 95 residues)-NS3 (1 to 185 residues) expressed in Escherichia coli BL21 Rosetta (DE3) incubated for 30 mins followed by Abz-RRRRSAG-nTyr substrate addition.
The test system of a further data set is West Nile virus. Nature of the data set: Antiviral activity against West Nile virus NY003356V2 infected in human A549 cells after 48 hrs by plaque reduction assay. In kind it is functional, organism-based. The following applies: NY003356V2, A549, 48 h.
Data set [7] can be described thus: Cytotoxicity against human A549 cells after 42 hrs by WST-8 cell proliferation assay. The format is cell-based. A general note: Tetrazolium dyes change colour on reduction, which living cells bring about.
The subject of data set [8] is Zika virus. Nature of the data set: Antiviral activity against Zika virus Puerto Rico/PRVABC59 infected in human A549 cells after 48 hrs by plaque reduction assay. In kind it is functional, organism-based. The following applies: Puerto Rico/PRVABC59, A549, 48 h.
The target of data set [9] is T1, NS5. The experiment in a line: Inhibition of Zika virus RNA-dependent RNA polymerase using poly(rC)/rG13 as substrate after 45 mins.
The subject of data set [10] is Zika virus. Nature of the data set: Antiviral activity against Zika virus PLCal_ZV infected in Huh7 cells by Promega Viral ToxGlo Assay. The format is functional, organism-based. The following applies: Huh-7.
Data set [11] can be described thus: Cytotoxicity against golden hamster BHK21 cells by Promega Viral ToxGlo Assay. In kind it is cell-based, Mesocricetus auratus. Conditions: BHK-21 cells.
Data set [12] can be described thus: Cytotoxicity against African green monkey Vero E6 cells by the MTS method. In kind it is cell-based, Vero C1008. Conditions: chlorocebus sabaeus.
Data set [13] can be described thus: Selectivity ratio of CC50 for African green monkey Vero E6 cells to EC50 for Zika virus MR766 infected in African green monkey Vero E6 cells. The format is toxicity, Vero C1008. The following applies: read-out: Ratio CC50/EC50.
Data set [14] in a line: Cytotoxicity against human NSC by CellTiter-Glo assay. Conditions: NSC cells. In kind it is cell-based.
For data set [15], the target named is T1, NS5. Nature of the data set: Binding affinity to Zika virus Methyltransferase.
Data set [16] can be described thus: Cytotoxicity against human JEG3 cells incubated for 36 hrs by resazurin-dye based Alamar blue assay. Conditions: JEG-3 cells. The format is cell-based. On the technique in general: The colour change of resazurin is a common sign of viable cells or microbes.
For data set [17], the system named is Zika virus. Nature of the data set: Antiviral activity against Zika virus Mex2-81 infected in human Jeg-3 cells assessed as reduction in virus-induced toxicity preincubated with cells for 1 hr followed by viral infection and measured 36 hrs post infection. The format is functional, organism-based. The following applies: Mex2-81, JEG-3.
The nature of data set [18]: Cytotoxicity against human Neural progenitor cells after 24 hrs by ATP-Lite assay. The format is cell-based.
Data set [19] has as its system Zika virus. Nature of the data set: Antiviral activity against Zika virus PA 259459 infected in SJL mouse assessed as decrease in viral RNA at 30 mg/kg dosed 5 times per day via drinking water for 5 days by RT-PCR relative to control. The format is functional.
Data set [20] addresses T2, Nonstructural protein 3. The experiment in a line: Inhibition of wild type Zika virus NS2B-NS3 protease preincubated for 30 mins followed by Pyr-RTKR-AMC substrate addition.
The nature of data set [21]: Half life in SJL mouse infected with Zika virus PA259459 at 10 mg/kg, ip measured up to 2 hr post infection by LC-MS/MS analysis. In kind it is ADME, organism-based. Conditions: in vivo.
A short description of data set [22]: Cytotoxicity against African green monkey Vero cells incubated for 4 days by luminescence method. The format is cell-based. The following applies: chlorocebus sabaeus.
For data set [23], the target named is T2, Nonstructural protein 3. Nature of the data set: Inhibition of N-terminal His6-tagged Zika virus NS2B (45 to 96 residues) - NS3 (1 to 177 residues) protease domain expressed in Escherichia coli BL21-Gold (DE3) cells or Escherichia coli BL21 Rosetta (DE3) preincubated for 30 mins followed by Bz-nKRR-AM substrate addition measured over 10 mins at 60 secs interval by fluorescence method.

Data set [24] is described as follows: Cytotoxicity against BHK21 cells after 24 to 48 hrs by CCK8 assay. In kind it is cell-based, Mesocricetus auratus. The following applies: hamster, BHK-21 cells.
Data set [25] has as its system Zika virus. The experiment in a line: Antiviral activity against Zika virus MR766 infected in African green monkey Vero cells by plaque assay. In kind it is functional, organism-based.

T1 sequence (A0A143MHK7 whole entry, the tested form may be a part): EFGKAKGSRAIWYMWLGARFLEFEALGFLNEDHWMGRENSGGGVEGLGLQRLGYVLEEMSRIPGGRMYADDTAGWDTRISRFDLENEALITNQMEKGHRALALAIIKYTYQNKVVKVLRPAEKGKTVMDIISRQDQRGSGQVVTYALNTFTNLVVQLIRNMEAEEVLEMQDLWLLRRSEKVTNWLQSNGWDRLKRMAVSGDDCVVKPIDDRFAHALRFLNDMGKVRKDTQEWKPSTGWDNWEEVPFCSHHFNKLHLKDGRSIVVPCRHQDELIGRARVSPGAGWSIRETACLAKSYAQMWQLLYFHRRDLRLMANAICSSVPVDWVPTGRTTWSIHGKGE
T2 sequence (A0A024AXB9 whole entry, the tested form may be a part): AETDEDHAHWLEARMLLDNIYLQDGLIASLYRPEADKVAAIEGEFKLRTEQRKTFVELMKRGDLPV
Genome polyprotein, sequence (P29990 1346-1475 limits assumed): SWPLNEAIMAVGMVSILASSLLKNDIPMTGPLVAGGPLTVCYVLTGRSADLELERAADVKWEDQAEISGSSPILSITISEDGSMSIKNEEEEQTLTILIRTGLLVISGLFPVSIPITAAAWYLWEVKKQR
Genome polyprotein, sequence (P29990 1476-2093 limits assumed): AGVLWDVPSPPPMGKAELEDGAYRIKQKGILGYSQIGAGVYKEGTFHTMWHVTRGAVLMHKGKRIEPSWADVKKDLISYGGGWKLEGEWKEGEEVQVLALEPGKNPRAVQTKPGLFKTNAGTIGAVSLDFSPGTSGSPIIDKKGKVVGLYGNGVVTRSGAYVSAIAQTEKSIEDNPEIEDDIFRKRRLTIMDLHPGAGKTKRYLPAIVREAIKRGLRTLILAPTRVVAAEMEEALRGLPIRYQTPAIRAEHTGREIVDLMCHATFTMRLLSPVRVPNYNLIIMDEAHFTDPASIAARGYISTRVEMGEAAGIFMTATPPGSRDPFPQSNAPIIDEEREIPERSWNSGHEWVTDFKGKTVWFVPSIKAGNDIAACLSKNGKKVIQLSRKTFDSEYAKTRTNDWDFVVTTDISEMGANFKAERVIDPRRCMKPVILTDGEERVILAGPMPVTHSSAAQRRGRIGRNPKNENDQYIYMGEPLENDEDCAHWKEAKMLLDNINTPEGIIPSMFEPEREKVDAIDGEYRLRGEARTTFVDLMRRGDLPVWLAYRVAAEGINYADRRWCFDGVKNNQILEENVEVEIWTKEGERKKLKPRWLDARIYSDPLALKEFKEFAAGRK

As a reminder, the CC50 is the concentration giving 50% cytotoxicity. Turning to `Nc1ncnc2c([C@@H]3N[C@H](CO)[C@@H](O)[C@H]3O)c[nH]c12`, the cytotoxic concentration (CC50) in data set [1], in data set [2] and in data set [3] was more than 89 µM throughout.

Regarding `C#C[C@@]1(O)[C@H](O)[C@@H](CO)O[C@H]1n1ccc2c(N)ncnc21`, the 50% cytotoxic concentration (CC50) in data set [3] is more than 50 µM.

As usually defined, the IC50 is the midpoint of a concentration-inhibition curve. For the molecule `Nc1cc(C(F)(F)F)ccc1NC(=O)Nc1cccc(S(=O)(=O)Nc2ccc(C(=O)O)cc2)c1`, the IC50 was 24 µM at NS5 [4] and 79 µM at NS5 [5].

By Ki is commonly meant a dissociation constant, usually derived from enzyme kinetics or from competition with a known ligand. On to `N=C(N)NCCC[C@H](NC(=O)[C@H](Cc1ccc(CN)cc1)NC(=O)c1ccccc1)B(O)O`, for which, on Nonstructural protein 3 [6], the 50% inhibitory concentration (IC50) came to 0.25 µM and the Ki stood at 0.04 µM.

For orientation: EC50 means the midpoint of the concentration-response curve. As for `O=C1C=C/C(=N/Nc2ccc([N+](=O)[O-])cc2Cl)C=C1C(=O)Nc1cccc(Cl)c1`, the 50% effective concentration (EC50) in the data set with Yellow fever virus was determined as 0.28 µM; with dengue virus type 2, 0.81 µM; with West Nile virus, 1.27 µM; with Zika virus [8], 1 µM. On Genome polyprotein, this molecule displayed an IC50 of 1.8 µM. For the same molecule, the CC50 at 42 h in data set [7] was 48.8 µM.

`[N-]=[N+]=NCc1cnc(C(=O)NO)c(O)c1CO` displayed a half-maximal inhibitory concentration (IC50) against NS5 [9] of 5.2 µM. The midpoint of the response in the data set on Zika virus [10], the EC50, lay at 4.6 µM. In data set [11], this molecule gave a CC50 of 22 µM.

Molecule `CCCCCOCc1c(Nc2ccc(S(N)(=O)=O)cc2)nc(N2CCOCC2)nc1C(=O)NCCOc1ccccc1` had a CC50 in data set [12] of more than 83.5 µM. Further, in data set [13], the selectivity ratio was more than 41.

In the case of `C#C[C@@]1(O)[C@H](O)[C@@H](COP(=O)(N[C@@H](C)C(=O)OC(C)C)Oc2ccccc2)O[C@H]1n1ccc(=O)[nH]c1=O` (stereo partly drawn), the CC50 in data set [14] was more than 50 µM.

In general, Kd refers to the concentration at which binding is half-saturated. On NS5 [15], `Nc1ncnc2c1ncn2[C@@H]1O[C@H](CN(CC[C@H](N)C(=O)O)Cc2ccc(F)cc2)[C@@H](O)[C@H]1O` came in with a Kd of 24.3 µM.

With `CO[C@H]1CC[C@@H](O[C@H]2C[C@H]([C@]3(C)CC[C@]4(C[C@H](O)[C@@H](C)[C@@H]([C@@H](C)/C=C(\C)C(=O)[C@H](C)C[C@H](C)C(=O)O)O4)O3)O[C@]3(O[C@@H]([C@H]4O[C@@](O)(CO)[C@H](C)C[C@@H]4C)C[C@@H]3C)[C@@H]2C)O[C@@H]1C`, the 50% cytotoxic concentration (CC50) at 36 h in data set [16] was 6.1 µM. Besides, the EC50 in the data set on Zika virus [17] turned out to be 0.97 µM.

In general, half-life refers to how long it takes for the measured level to halve. For `Clc1nc2n[nH]nc2nc1Cl`, the CC50 at 24 h in [18] is more than 50 µM. For the same molecule, the “fold change (FC)” value with Zika virus [19] is recorded as 10. Besides, at Nonstructural protein 3 [20], the IC50 is 0.82 µM. The half-life in data set [21] came out at 20 min.

As for `CC(C)OC(=O)[C@H](C)NP(=O)(OC[C@H]1O[C@@H](n2ccc(=O)[nH]c2=O)[C@H](O)[C@@H]1O)Oc1ccccc1` (stereo partly drawn), the half-maximal cytotoxic concentration (CC50) in data set [14] was 47 µM.

As for `O=C(NC(=S)Nc1ccc(N2CCN(C(=O)c3cccs3)CC2)cc1)c1sc2ccccc2c1Cl`, the CC50 at 96 h in data set [22] was 19.4 µM.

Molecule `COc1ccc(S(=O)(=O)n2nc(OC(=O)c3ccccc3)cc2N)cc1` returned a concentration for half-maximal inhibition (IC50) against Nonstructural protein 3 [23] of 1.5 µM.

For `O[C@@H](c1cc(C(F)(F)F)nc2c(C(F)(F)F)cccc12)[C@H]1CCCCN1` [(S,R)-MEFLOQUINE], in [24], the midpoint of cytotoxicity, the CC50, lay at 20.4 µM. The same molecule returned a 50% effective concentration (EC50) with Zika virus [25] of 3.95 µM.

`C[S+](CC[C@H](N)C(=O)[O-])C[C@H]1O[C@@H](n2cnc3c(N)ncnc32)[C@H](O)[C@@H]1O` (stereo partly drawn) [ADEMETIONINE] displayed a Kd on NS5 [15] of 2.58 µM.
